From patent US20040092524A1, “Novel aminophenyl piperazine or aminophenyl piperidine derivatives inhibiting prenyl transferase proteins and method for preparing same” (priority 2000, published 2004)

Biological target: T1, protein farnesyl transferase (Bos taurus, UniProt P29702+P49355)
T1 construct: partially purified from bovine brain by ion-exchange chromatography; from tissue; host or cells: bovine brain
Assay: Inhibition of protein farnesyl transferase (dansyl-GCVLS fluorescence)
Format: biochemical
Details: enzyme partially purified from bovine brain; 2 μM FPP, 2 μM dansyl GCVLS, 10 minutes at 37° C.; read-out: IC50 (PFTase)
Procedure: A) Evaluation of the Inhibition of Protein Famesyl Transferase:
The famesylation of the dansylated peptide GCVLS, catalyzed with the enzyme protein famesyl transferase results in a change in the emission spectrum of the dansyl group, and especially an increase in the emission at 505 nm when the molecule is excited at 340 nm. When measured using the spectrofluorimeter, this emission is proportional to the activity of the enzyme (Pompliano et al., J. Am. Chem. Soc. 1992; 114: 7945-7946).
55 mM TRIS/HCl pH 7.5; 5.5 mM DTT; 5.5 mM MgCl2; 110 μM ZnCl2, 0.22% B-octyl-B D-glucopyrannoside.
Farnesyl pyrophosphate (FPP), (Sigma)
Dansylated peptide dansyl-GCVLS (Neosystem/Strasbourg, France)
The protein farnesyl transferase is partially purified from bovine brain by ion-exchange chromatography on Q-sepharose (Pharmacia) (Moores et al., J. Biol. Chem. 1991, 266: 14603-14610, Reiss et al., Cell 1990, 62: 81-88).
The reaction mixture containing 2 μM of FPP, 2 μM of dansyl GCVLS with or without (zero) the amount of enzyme giving an intensity of 100 on the spectrofluorimeter after incubation for 10 minutes at 37° C., is prepared on ice.
In an Eppendorf tube, 360 μL of reaction mixture are mixed with 40 μl of 10× concentrated test product or of solvent, and incubated for 10 minutes at 37° C. The reaction is quenched on ice and the fluorescence intensity is measured (excitation at 340 nm, 4 nm slit, emission at 505 nm, 10 nm slit). The tests are performed in duplicate. The results are expressed as a percentage of inhibition. Under these conditions, the derivatives of the present invention were identified as powerful inhibitors of protein farnesyl transferase (IC50<10 μM).
Adaptation of the method to a 96-well format:
The procedure is similar to that above, except that the measurements are performed in a “Black Fluorotrack 200” 96-well device (Greiner, Poitiers, France) and the readings are performed using a “Spectrametrix Gemini” 96-well fluorimeter (Molecular Devices, Sunnyvale, Calif., USA)

| SMILES | IC50 [nM] |
| --- | --- |
| CC(C)CNC(=S)N1CCC(c2ccc(N(Cc3cnc[nH]3)S(=O)(=O)c3ccccc3)cc2)CC1 [Example 141, 4-{4-[Benzenesulfonyl-(3H-imidazol-4-ylmethyl)amino]phenyl}piperidine-1-carbothioic acid isobutylamide] | 9 |
| CCCNC(=O)N(Cc1cnc[nH]1)c1ccc(N2CCN(C(=O)c3ccc(Cl)s3)CC2)cc1 [Example 82, 1-{4-[4-(5-Chloro-2-thiophenecarbonyl)-1-piperazinyl]phenyl}-1-(3H-imidazol-4-ylmethyl)-3-propyl-urea] | 7 |
| N#Cc1ccc(Cn2cncc2CN(C(=O)c2ccccc2F)c2ccc(N3CCN(C(=O)c4ccc(Cl)s4)CC3)cc2)cc1 [Example 113, N-{4-[4-(5-Chloro-2-thiophenecarbonyl)-1-piperazinyl]phenyl}-N-[3-(4-cyanobenzyl)-3H-imidazol-4-ylmethyl]-2-fluorobenzamide] | 2 |
| CC(C)CNC(=S)N1CCN(c2ccc(N(Cc3cnc[nH]3)S(=O)(=O)c3ccccc3)cc2)CC1 [Example 45, 4-{4-[Benzenesulfonyl-(3H-imidazol-4-ylmethyl)amino]phenyl}-1-piperazinecarbothioic acid isobutylamide] | 6 |
| N#Cc1ccc(Cn2cncc2CN(C(=O)c2ccccc2)c2ccc(N3CCN(C(=O)c4ccc(Cl)s4)CC3)cc2)cc1 [Example 108, N-{4-[4-(5-Chloro-2-thiophenecarbonyl)-1-piperazinyl]phenyl}N-[3-(4-cyanobenzyl)-3H-imidazol-4-ylmethyl]benzamide] | 2 |
| N#Cc1ccc(Cn2cncc2CN(C(=O)c2ccccc2Cl)c2ccc(N3CCN(C(=O)c4ccc(Cl)s4)CC3)cc2)cc1 [Example 110, 2-Chloro-N-{4-[4-(5-chloro-2-thiophenecarbonyl)-1-piperazinyl]phenylk}-N-[3-(4-cyanobenzyl)-3H-imidazol-4-ylmethyl]benzamide] | 2 |
| N#Cc1ccc(Cn2cncc2CN(C(=O)c2cccc(F)c2)c2ccc(N3CCN(C(=O)c4ccc(Cl)s4)CC3)cc2)cc1 [Example 114, N-{4-[4-(5-Chloro-2-thiophenecarbonyl)-1-piperazinyl]phenyl}-N-[3-(4-cyanobenzyl)-3H-imidazol-4-ylmethyl]-3-fluorobenzamide] | 2 |

Further compounds by falling IC50, results first:

| IC50 [nM] | SMILES |
| --- | --- |
| 2 | N#Cc1ccc(Cn2cncc2CN(C(=O)C2CCCCC2)c2ccc(N3CCN(C(=O)c4ccc(Cl)s4)CC3)cc2)cc1 [Example 124, Cyclohexanecarboxylic acid {4-[4-(5-chloro-2-thiophenecarbonyl)-1-piperazinyl]phenyl}-[3-(4-cyanobenzyl)-3H-imidazol-4-ylmethyl]amide] |
| 2 | N#Cc1ccc(Cn2cncc2CN(C(=O)c2ccc(C#N)cc2)c2ccc(N3CCN(C(=O)c4ccc(Cl)s4)CC3)cc2)cc1 [Example 123, N-{4-[4-(5-Chloro-2-thiophenecarbonyl)-1-piperazinyl]phenyl}-4-cyano-N-[3-(4-cyanobenzyl)-3H-imidazol-4-ylmethyl]-benzamide] |
| 1 | N#Cc1ccc(Cn2cncc2CN(C(=O)c2cccs2)c2ccc(N3CCN(C(=O)c4ccc(Cl)s4)CC3)cc2)cc1 [Example 109, Thiophene-2-carboxylic acid {4-[4-(5-chloro-2-thiophenecarbonyl)-1-piperazinyl]phenyl}[3-(4-cyanobenzyl)-3H-imidazol-4-ylmethyl]amide] |
| 0.9 | N#Cc1ccc(Cn2cncc2CN(c2ccc(N3CCN(C(=O)c4ccc(Cl)s4)CC3)cc2)S(=O)(=O)c2ccccc2C#N)cc1 [Example 126, N-{4-[4-(5-Chloro-2-thiophenecarbonyl)-1-piperazinyl]phenyl}-2-cyano-N-[3-(4-cyanobenzyl)-3H-imidazol-4-ylmethyl]benzenesulfonamide] |

Biological target: T2, GGPT I (Bos taurus, UniProt P29702+Q5EAD5)
T2 construct: GGPT I is partially purified from bovine brain by ion-exchange chromatography; from tissue; host or cells: bovine brain
Assay: Inhibition of geranylgeranyl transferase protein I (3H-GGPP, RhoA-GST filter assay)
Format: biochemical
Details: enzyme partially purified from bovine brain; 0.2 μM 3H-GGPP, 1 μM RhoA-GST, 45 minutes at 37° C.; read-out: IC50 (PGGTase)
Procedure: B) Evaluation of the Inhibition of Geranyl Geraryl Transferase Protein I:
55 mM TRIS/HCl pH 7.5; 5.5 mM DTT; 5.5 mM MgCl2; 110 μM ZnCl2, 0.22% N-octyl-B D-glucopyrannoside.
^3H-geranylgeranyl pyrophosphate (GGPP), 66 μM, 15 CI/mmol, (Isotopchim) Rho-GST recombinant protein
GGPT I is partially purified from bovine brain by ion-exchange chromatography on Q-sepharose (Pharmacia); elution at 0.23 and 0.4 M NaCl, respectively.
The reaction mixture containing 0.2 μM of ^3H-GGPP, 1 μM of RhoA-GST with or without (zero) 5 μl of GGPT/test, is prepared on ice.
In an Eppendorf tube, 45 μl of reaction mixture are mixed with 5 μl of 10× concentrated test product or of solvent, and incubated for 45 minutes at 37° C. A 45 μl aliquot is placed on a phosphocellulose P81 filter (Whatman, Maidstone, UK) numbered, washed with 50% ethanol, phosphoric acid (0.5%) and counted by scintillation.
The tests are performed in duplicate. The results are expressed as a percentage of inhibition.
Adaptation of the Method to a 96-well Format: […]
The tests are performed in triplicate. The results are expressed as a percentage of inhibition.

| IC50 [nM] | SMILES |
| --- | --- |
| 700 | N#Cc1ccc(Cn2cncc2CN(C(=O)c2cccs2)c2ccc(N3CCN(C(=O)c4ccc(Cl)s4)CC3)cc2)cc1 [Example 109, Thiophene-2-carboxylic acid {4-[4-(5-chloro-2-thiophenecarbonyl)-1-piperazinyl]phenyl}[3-(4-cyanobenzyl)-3H-imidazol-4-ylmethyl]amide] |
